# Test results taken from PubChem BioAssay (NCI).
#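 In this assay, cells in 96-well plates receive the compound at five concentrations for 48 hours. Endpoints are linearly interpolated between the surrounding concentrations. GI50: concentration for 50% inhibition of growth. TGI: total growth inhibition.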
# Assays:
# Experiment in all cases: growth of human tumour cells (NCI), 48 h
# LOX IMVI melanoma = system: LOX IMVI melanoma
# OVCAR-5 ovarian = system: OVCAR-5 ovarian
# HCT-116 colon = system: HCT-116 colon
# HT29 colon = system: HT29 colon
# SNB-19 CNS = system: SNB-19 CNS
# CAKI-1 renal = system: CAKI-1 renal
# RPMI-8226 leukemia = system: RPMI-8226 leukemia
# OVCAR-3 ovarian = system: OVCAR-3 ovarian
# SK-MEL-28 melanoma = system: SK-MEL-28 melanoma
# HL-60(TB) leukemia = system: HL-60(TB) leukemia
Structure (SMILES),GI50 (LOX IMVI melanoma),TGI (LOX IMVI melanoma),GI50 (OVCAR-5 ovarian),TGI (OVCAR-5 ovarian),GI50 (HCT-116 colon),TGI (HCT-116 colon),GI50 (HT29 colon),TGI (HT29 colon),GI50 (SNB-19 CNS),TGI (SNB-19 CNS),GI50 (CAKI-1 renal),TGI (CAKI-1 renal),GI50 (RPMI-8226 leukemia),TGI (RPMI-8226 leukemia),GI50 (OVCAR-3 ovarian),TGI (OVCAR-3 ovarian),GI50 (SK-MEL-28 melanoma),TGI (SK-MEL-28 melanoma),GI50 (HL-60(TB) leukemia),TGI (HL-60(TB) leukemia)
COC(=O)[C@H](Cc1cn(C)cn1)NC(=O)[C@H](C)NC(=O)Nc1cc(C(F)(F)F)cc(C(F)(F)F)c1,> 10 µM,> 10 µM,> 10 µM,> 10 µM,> 10 µM,> 10 µM,> 10 µM,> 10 µM,> 10 µM,> 10 µM,> 10 µM,> 10 µM,> 10 µM,> 10 µM,> 10 µM,> 10 µM,> 10 µM,> 10 µM,> 10 µM,> 10 µM
Cn1cc(C2=C(Nc3ccccc3)C(=O)NC2=O)c2ccccc21,> 25 µM,> 25 µM,> 25 µM,> 25 µM,16.4 µM,> 25 µM,14.7 µM,> 25 µM,> 25 µM,> 25 µM,> 25 µM,> 25 µM,> 25 µM,> 25 µM,> 25 µM,> 25 µM,> 25 µM,> 25 µM,> 25 µM,> 25 µM
COC1CC(N)C(O)C(C)O1 (stereo not drawn),–,> 100 µM,–,> 100 µM,–,> 100 µM,–,> 100 µM,–,> 100 µM,–,> 100 µM,–,> 100 µM,–,> 100 µM,–,> 100 µM,–,> 100 µM
COc1cc2c(c(OC)c1OC)-c1ccc(N=NC(N)=S)c(=O)cc1[C@@H](NC(C)=O)CC2,0.618 µM,> 100 µM,2.26 µM,> 100 µM,0.396 µM,–,0.388 µM,> 100 µM,0.578 µM,> 100 µM,> 24.4 µM,> 100 µM,0.708 µM,> 100 µM,0.263 µM,0.642 µM,0.808 µM,> 100 µM,0.378 µM,–
Cc1ccc(-n2nnnc2-c2cnc(N3CCOCC3)nc2-c2cccc(C(F)(F)F)c2)cc1,2.53 µM,7.53 µM,2.6 µM,> 43.1 µM,1.35 µM,5.08 µM,1.53 µM,> 18.4 µM,2.21 µM,> 32.8 µM,1.45 µM,13.2 µM,1.28 µM,3.77 µM,1.05 µM,2.81 µM,14.4 µM,> 50 µM,2.34 µM,17.5 µM
